# Read-outs that look alike come from different tables or passages of the source.
# Columns and labels:
# [1] = parameters: method as in PMID 18772318, PMID 24442096, PMID 34710625; conditions: rat brain; Figure 1, earlier M4 PAMs; cited from earlier work
# [2] = parameters: method as in PMID 18772318, PMID 24442096, PMID 34710625; conditions: Figure 1, earlier M4 PAMs; cited from earlier work
# [3] = parameters: method as in PMID 18772318, PMID 24442096, PMID 34710625; conditions: rat; Figure 1, earlier M4 PAMs; cited from earlier work
# [4] = Binding in plasma from rat, equilibrium dialysis; type: in vitro ADME; conditions: read-out: rat fu,plasma
# [5] = Intrinsic clearance in human liver microsomes (substrate depletion), predicted hepatic clearance; type: in vitro ADME; conditions: for CLint scaled at 1 µM: pH 7.4, human liver microsomes; for CLhep, human (predicted hepatic clearance): predicted from human microsomal CLint
# CYP 2C9 [6] = target: T1, CYP 2C9 (Homo sapiens, UniProt P11712); test: CYP450 inhibition in pooled human liver microsomes, CYP-specific probe substrates; type: in vitro ADME; conditions: pooled HLM, NADPH, CYP-specific probe substrate
# human M4 (hM4) = target: T2, human M4 (hM4) (Homo sapiens, UniProt P08173); test: Calcium mobilization assay, hM4/Gqi5-CHO cells, with EC20 acetylcholine (PAM); conditions: hM4/Gqi5-CHO cells, calcium mobilization; for hM4 pEC50 / hM4 %ACh Max: EC20 acetylcholine; for hM4 %ACh Max: maximum response; for EC50: read-out: hM4 EC50, EC20 fixed concentration of acetylcholine
# T2 sequence (P08173 1-479): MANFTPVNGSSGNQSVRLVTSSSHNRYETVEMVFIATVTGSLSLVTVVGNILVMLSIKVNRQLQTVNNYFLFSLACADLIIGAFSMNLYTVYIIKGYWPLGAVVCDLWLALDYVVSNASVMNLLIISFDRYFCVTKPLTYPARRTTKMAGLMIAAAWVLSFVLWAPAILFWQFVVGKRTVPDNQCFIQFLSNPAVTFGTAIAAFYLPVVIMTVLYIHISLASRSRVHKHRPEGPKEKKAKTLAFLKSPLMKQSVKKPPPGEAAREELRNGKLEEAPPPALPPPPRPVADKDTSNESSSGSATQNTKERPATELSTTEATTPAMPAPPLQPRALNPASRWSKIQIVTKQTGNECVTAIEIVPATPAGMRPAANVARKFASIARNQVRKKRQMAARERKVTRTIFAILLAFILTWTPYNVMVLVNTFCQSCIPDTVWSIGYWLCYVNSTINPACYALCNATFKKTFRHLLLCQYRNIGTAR
# [7] = Binding in plasma from human, equilibrium dialysis; type: in vitro ADME; conditions: human, plasma, read-out: human fu,plasma
# human M2 (hM2) = target: T3, human M2 (hM2) (Homo sapiens, UniProt P08172); test: Calcium mobilization assay, hM2/Gqi5-CHO cells, with EC20 acetylcholine; type: cell-based
# T3 construct: expressed in transfected cells
# T3 sequence (P08172 1-466): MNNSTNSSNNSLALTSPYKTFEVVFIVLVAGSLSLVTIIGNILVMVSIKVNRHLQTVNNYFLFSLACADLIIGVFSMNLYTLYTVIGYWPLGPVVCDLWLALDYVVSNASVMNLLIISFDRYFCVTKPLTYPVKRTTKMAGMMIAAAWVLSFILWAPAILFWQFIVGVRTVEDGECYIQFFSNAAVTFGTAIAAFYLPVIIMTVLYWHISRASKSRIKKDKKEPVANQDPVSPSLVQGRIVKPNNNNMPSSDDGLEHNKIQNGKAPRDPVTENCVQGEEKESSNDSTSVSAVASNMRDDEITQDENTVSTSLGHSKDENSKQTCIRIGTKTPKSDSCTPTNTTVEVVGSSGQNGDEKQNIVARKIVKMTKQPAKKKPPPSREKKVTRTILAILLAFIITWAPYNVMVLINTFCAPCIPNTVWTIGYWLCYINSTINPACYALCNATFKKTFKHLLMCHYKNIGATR
# Source text: buffer remained in the cell plates. […] After establishment of a […]
# [8] = Binding in brain homogenate from rat, equilibrium dialysis; type: in vitro ADME; conditions: rat, brain homogenate, rat brain homogenates, read-out: rat fu,brain
# CYP 3A4 = CYP 3A4 (Homo sapiens, UniProt P08684); test: CYP450 inhibition in pooled human liver microsomes, CYP-specific probe substrates; type: in vitro ADME; conditions: pooled HLM, NADPH, CYP-specific probe substrate
# CYP 2D6 [9] = target: T4, CYP 2D6 (Homo sapiens, UniProt P10635); test: as above; type: in vitro ADME; conditions: pooled HLM, NADPH, CYP-specific probe substrate
# CYP 1A2 [10] = target: T5, CYP 1A2 (Homo sapiens, UniProt P05177); test: as above; type: in vitro ADME; conditions: pooled HLM, NADPH, CYP-specific probe substrate
# T5 sequence (P05177 1-516): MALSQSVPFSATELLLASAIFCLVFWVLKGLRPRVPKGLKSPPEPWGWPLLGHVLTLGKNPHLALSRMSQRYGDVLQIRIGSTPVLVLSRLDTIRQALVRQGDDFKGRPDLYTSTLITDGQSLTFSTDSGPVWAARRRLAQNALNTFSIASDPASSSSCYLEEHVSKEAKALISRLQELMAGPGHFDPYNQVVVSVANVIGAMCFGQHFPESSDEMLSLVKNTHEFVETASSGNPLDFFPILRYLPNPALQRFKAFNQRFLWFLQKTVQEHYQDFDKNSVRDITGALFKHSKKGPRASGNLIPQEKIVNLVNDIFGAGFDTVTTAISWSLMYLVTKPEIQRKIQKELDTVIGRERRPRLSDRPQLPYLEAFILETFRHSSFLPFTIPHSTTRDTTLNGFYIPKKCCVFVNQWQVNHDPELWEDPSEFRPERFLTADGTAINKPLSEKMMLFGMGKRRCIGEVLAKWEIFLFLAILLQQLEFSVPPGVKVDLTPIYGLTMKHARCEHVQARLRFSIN
# [11] = Intrinsic clearance in rat liver microsomes (substrate depletion), predicted hepatic clearance; type: in vitro ADME; conditions: for CLint scaled at 1 µM: pH 7.4, rat liver microsomes; for CLhep, rat (predicted hepatic clearance): predicted from rat microsomal CLint
# [12] = parameters: method as in PMID 18772318, PMID 24442096, PMID 34710625; conditions: human; Figure 1, earlier M4 PAMs; cited from earlier work
# CYP 2D6 [13] = target: T4, CYP 2D6; parameters: method as in PMID 23177787; conditions: Figure 1; read-out: Cyp P450 Inhibition (2D6); cited from earlier work
# CYP 2C9 [14] = target: T1, CYP 2C9; parameters: method as in PMID 23177787; conditions: Figure 1; read-out: Cyp P450 Inhibition (2C9); cited from earlier work
# CYP 1A2 [15] = target: T5, CYP 1A2; parameters: method as in PMID 23177787; conditions: Figure 1; read-out: Cyp P450 Inhibition (1A2); cited from earlier work
# T4 sequence (P10635 whole entry): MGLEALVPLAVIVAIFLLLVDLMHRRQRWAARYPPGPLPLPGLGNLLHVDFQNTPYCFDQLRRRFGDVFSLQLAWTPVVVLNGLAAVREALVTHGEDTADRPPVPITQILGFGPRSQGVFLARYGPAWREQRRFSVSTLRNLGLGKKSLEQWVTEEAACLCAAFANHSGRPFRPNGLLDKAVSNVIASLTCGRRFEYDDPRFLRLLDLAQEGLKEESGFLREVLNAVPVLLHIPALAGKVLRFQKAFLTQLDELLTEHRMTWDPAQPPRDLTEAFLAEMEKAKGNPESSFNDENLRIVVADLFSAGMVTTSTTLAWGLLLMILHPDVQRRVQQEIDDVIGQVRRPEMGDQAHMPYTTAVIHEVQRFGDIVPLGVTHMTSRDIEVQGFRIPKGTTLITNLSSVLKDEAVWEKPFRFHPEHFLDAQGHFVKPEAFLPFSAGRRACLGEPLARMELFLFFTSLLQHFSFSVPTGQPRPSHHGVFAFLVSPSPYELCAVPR
# T1 sequence (P11712 whole entry): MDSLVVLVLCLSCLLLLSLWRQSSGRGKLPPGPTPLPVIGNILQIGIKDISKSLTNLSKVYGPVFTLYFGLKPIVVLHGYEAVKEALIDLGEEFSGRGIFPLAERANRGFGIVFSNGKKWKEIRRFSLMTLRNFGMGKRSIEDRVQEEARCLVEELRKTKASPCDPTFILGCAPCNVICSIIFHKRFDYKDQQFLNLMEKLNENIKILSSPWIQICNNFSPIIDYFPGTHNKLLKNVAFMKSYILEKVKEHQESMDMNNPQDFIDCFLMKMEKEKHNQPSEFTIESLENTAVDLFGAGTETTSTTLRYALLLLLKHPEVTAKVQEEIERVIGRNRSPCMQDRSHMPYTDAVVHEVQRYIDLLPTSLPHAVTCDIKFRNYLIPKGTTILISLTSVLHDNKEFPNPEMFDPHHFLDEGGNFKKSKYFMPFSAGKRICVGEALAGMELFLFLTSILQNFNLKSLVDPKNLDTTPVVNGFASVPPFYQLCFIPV
# Chain of CYP 3A4 (P08684 whole entry): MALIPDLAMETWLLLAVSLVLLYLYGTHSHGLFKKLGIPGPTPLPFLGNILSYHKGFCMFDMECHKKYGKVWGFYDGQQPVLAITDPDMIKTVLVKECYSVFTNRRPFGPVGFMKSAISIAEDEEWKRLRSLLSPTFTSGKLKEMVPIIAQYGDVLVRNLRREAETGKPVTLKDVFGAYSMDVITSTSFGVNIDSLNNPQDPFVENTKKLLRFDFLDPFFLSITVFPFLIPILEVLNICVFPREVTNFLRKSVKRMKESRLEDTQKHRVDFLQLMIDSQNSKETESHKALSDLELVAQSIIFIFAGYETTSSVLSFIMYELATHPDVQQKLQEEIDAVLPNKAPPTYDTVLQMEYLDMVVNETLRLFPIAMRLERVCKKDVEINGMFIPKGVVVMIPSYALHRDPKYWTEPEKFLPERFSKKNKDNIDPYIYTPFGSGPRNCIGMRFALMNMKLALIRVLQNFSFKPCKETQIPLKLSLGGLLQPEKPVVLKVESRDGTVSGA
Compound,"fu,b (r) [1]",rat CLhep [2] [mL/min/kg],"fu,plasma (r) [3]","fraction unbound at 6 h, 5 µM [4]",CLint scaled at 1 µM [5] [mL/min/kg],"CLhep, human (predicted hepatic clearance) [5] [mL/min/kg]",IC50 (CYP 2C9 [6]) [nM],hM4 pEC50 (human M4 (hM4)),hM4 %ACh Max (human M4 (hM4)) [%],EC50 (human M4 (hM4)) [nM],"fraction unbound at 6 h, 5 µM [7]","fraction unbound at 6 h, 1 µM [8]",IC50 (CYP 3A4) [nM],IC50 (CYP 2D6 [9]) [nM],IC50 (CYP 1A2 [10]) [nM],CLint scaled at 1 µM [11] [mL/min/kg],"CLhep, rat (predicted hepatic clearance) [11] [mL/min/kg]",further results
COc1ccc(CNC(=O)c2sc3nc(C)cc(C)c3c2N)cc1 [VU0152100],0.045,65,0.011,,,,,,,,,,,,,,,
Cc1nc2sc3c(NC4CC4)nncc3c2c(C)c1Cl.Cl [Compound 22i],,,,0.042,52,15,19200,7.19,88,65,0.013,0.011,28800,7900,< 100,420,60,hM2 EC50 (human M2 (hM2)): inactive
Cc1c(Cl)cnc2sc3c(NC4CC4)ncnc3c12 [Compound 15g],,,,0.039,57,15,> 30000,7.60,110,25,0.01,0.003,24300,> 30000,< 100,789,64,EC50 (human M2 (hM2)): 480 nM; hM2 % ACh Max (human M2 (hM2)): 40%
Cc1cc(C)c2c(n1)sc1c(N3CC4(COC4)C3)ncnc12 [VU6007215],0.019,63,0.206,,,,,,,,,,,,,,,"fu,plasma (h) [12]: 0.056"
Cc1nc2sc(C(=O)NCc3ccncc3)c(N)c2c(C)c1Cl [ML253],,,,,,,,,,,,,,,,,,IC50 (CYP 2D6 [13]): 700 nM; IC50 (CYP 2C9 [14]): < 100 nM; IC50 (CYP 1A2 [15]): 120 nM

# — publication PMC11318023, “Discovery of VU6008677: A Structurally Distinct Tricyclic M4 Positive Allosteric Modulator with Improved CYP450 Profile” (ACS Medicinal Chemistry Letters, 2024)
